Test results: US7803801B2, “Aminopyridine compounds having Syk inhibitory activity” (Japan Tobacco, Inc., priority 2005, dated 2010)
Where a name gives a salt, the structure may show the parent alone. Read-outs that look alike come from different tables or passages of the source.

What was measured:
[1] = biological target: GST-Syk Full Protein (human) (Homo sapiens, UniProt P43405); test: Syk kinase inhibition test (HTRF method); format: biochemical
Outline: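 HTRF read-out: after EDTA termination and 1 h with XL665-streptavidin and Eu-anti-phosphotyrosine, the 665/620 nm ratio was measured. The reaction ran 30 min at 20–25 °C with final 6.4 nM human GST-Syk, 250 nM biotinylated peptide, 100 μM ATP, pH 7.0 HEPES buffer, 2% DMSO.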

[2] = system: cultured human mast cells; test: Degranulation inhibition test using cultured human mast cells (IgE cross-linking, β-Hexosaminidase release); format: cell-based; settings: read-out: human degranulation ave. IC50
Outline: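 Degranulation was triggered by anti-hIgE (10 μg/mL final, 30 min, 37 °C) after a 10-min compound pretreatment (DMSO 0.1%) of cord-blood CD34+-derived mast cells primed 5 days with IL-4 and IgE. β-Hexosaminidase in supernatant was measured with p-nitrophenyl-GlcNAc substrate (A405), expressed against water-lysed total; IC50 (M).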

[3] = HTRF, 100 μM ATP, 30 min room temperature, average, read-out: sykHTRF ave IC50
[4] = Mast cell, cultured human mast cells, anti-hIgE stimulation, β-Hexosaminidase index, average
[5] = Tables 1-x, compounds A, read-out: sykHTRF ave IC50
[6] = Mast cell, Tables 1-x, compounds A, cultured human mast cells
[7] = Tables 2-x, thiophene compounds B, read-out: sykHTRK ave IC50
[8] = Mast cell, Tables 2-x, thiophene compounds B, cultured human mast cells

Row | IC50 [1, 3] [nM] | IC50 [2, 4] [nM] | IC50 [1, 5] [nM] | IC50 [2, 6] [nM] | SMILES | further results
1 | 100 to 1000 | > 1000 |  |  | Cc1ccnc(Nc2cccc(-c3cnc(C(=O)NCC(C)O)s3)n2)c1 (stereo not shown) [Compound A-66] | 
2 |  |  | < 100 | 100 to 1000 | COc1ccnc(Nc2cccc(-c3cnc(N4CCC(C(N)=O)CC4)s3)n2)c1 [Compound A-517, 1-{5-[6-(4-methoxypyridin-2-ylamino)pyridin-2-yl]thiazol-2-yl}piperidine-4-carboxamide] | 
3 |  |  | < 100 | 100 to 1000 | Cc1ccnc(Nc2cccc(-c3cnc(N4CCC(CC(N)=O)CC4)s3)n2)c1 [Compound A-504, 2-(1-{5-[6-(4-methylpyridin-2-ylamino)pyridin-2-yl]thiazol-2-yl}piperidin-4-yl)acetamide] | 
4 | 100 to 1000 | > 1000 |  |  | Cc1ccnc(Nc2cccc(-c3cnc(C4CCCC(C(=O)N5C[C@@H](O)[C@@H](O)C5)C4)s3)n2)c1 (stereo partly shown) [Compound A-273] | 
5 | 100 to 1000 | > 1000 |  |  | CC(=O)NC(C)(C)c1ncc(-c2cccc(Nc3cc(C)ccn3)n2)s1 [Compound A-114] | 
6 |  |  | < 100 | 100 to 1000 | CCN(c1ncc(-c2cccc(Nc3cc(C)ccn3)n2)s1)C1CCN(C(C)=O)CC1 [Compound A-534, 1-[4-(N-ethyl-N-{5-[6-(4-methylpyridin-2-ylamino)pyridin-2-yl]thiazol-2-yl}amino)piperidin-1-yl]ethanone] | 
7 | < 100 | 100 to 1000 |  |  | CNC(=O)c1ncc(-c2cccc(Nc3cc(C)ccn3)n2)s1 [Compound A-47, N-methyl-5-[6-(4-methylpyridin-2-ylamino)pyridin-2-yl]thiazole-2-carboxamide] | 
8 |  |  | 100 to 1000 | > 1000 | Cc1ccnc(Nc2cccc(-c3cnc(N(CC(=O)N(C)C)C[C@H]4CC[C@H](C(=O)O)CC4)s3)n2)c1 [Compound A-601] | 
9 |  |  | < 100 | > 1000 | Cc1ccnc(Nc2cccc(-c3cnc(N4CCC(C(=O)O)C4)s3)n2)c1 (stereo not shown) [Compound A-576, 1-{5-[6-(4-methylpyridin-2-ylamino)pyridin-2-yl]thiazol-2-yl}pyrrolidine-3-carboxylic acid dihydrochloride] | 
10 | 100 to 1000 | 100 to 1000 |  |  | Cc1ccnc(Nc2cccc(-c3cnc([C@@H](O)CO)s3)n2)c1 [Compound A-78] | 
11 |  |  | < 100 | 100 to 1000 | CC(=O)c1ccnc(Nc2cccc(-c3cnc(N4CCC[C@H]4C(N)=O)s3)n2)c1 [Compound A-561, (S)-1-{5-[6-(4-acetylpyridin-2-ylamino)pyridin-2-yl]thiazol-2-yl}pyrrolidine-2-carboxamide] | 
12 |  |  | < 100 | > 1000 | Cc1ccnc(Nc2cccc(-c3cnc(N4CC[C@@H](OCC(=O)O)C4)s3)n2)c1 [Compound A-575, ((R)-1-{5-[6-(4-methylpyridin-2-ylamino)pyridin-2-yl]thiazol-2-yl}pyrrolidin-3-yloxy)acetic acid dihydrochloride] | 
13 |  |  | < 100 | 100 to 1000 | CC(=O)c1ccnc(Nc2cccc(-c3cnc(N4CCC[C@@H](C(=O)O)C4)s3)n2)c1 [Compound A-560, (R)-1-{5-[6-(4-acetylpyridin-2-ylamino)pyridin-2-yl]thiazol-2-yl}piperidine-3-carboxylic acid] | 
14 |  |  | < 100 | 100 to 1000 | Cc1ccnc(Nc2cccc(-c3cnc(N(C)[C@H]4CC[C@H](O)CC4)s3)n2)c1 [Compound A-480, trans-4-(N-methyl-N-{5-[6-(4-methylpyridin-2-ylamino)pyridin-2-yl]thiazol-2-yl}amino)cyclohexanol] | 
15 | 100 to 1000 | 100 to 1000 |  |  | Cc1ccnc(Nc2cccc(-c3cnc(CNC(=O)CCO)s3)n2)c1 [Compound A-186] | 
16 | 100 to 1000 | 100 to 1000 |  |  | Cc1ccnc(Nc2cccc(-c3cnc([C@H](C)NC(=O)[C@H](C)O)s3)n2)c1 [Compound A-32] | 
17 |  |  | < 100 | 100 to 1000 | O=C(NO)[C@@H]1CCCN(c2ncc(-c3cccc(Nc4cc(Cl)ccn4)n3)s2)C1 [Compound A-552, N-hydroxy-(R)-1-{5-[6-(4-chloropyridin-2-ylamino)pyridin-2-yl]thiazol-2-yl}piperidine-3-carboxamide] | 
18 | 100 to 1000 | > 1000 |  |  | Cc1ccnc(Nc2cccc(-c3cnc(C4CCCC(C(=O)O)C4)s3)n2)c1 (stereo not shown) [Compound A-270] | 
19 | 100 to 1000 | > 1000 |  |  | Cc1ccnc(Nc2cccc(-c3cnc(CNC(=O)NCC(=O)O)s3)n2)c1 [Compound A-254] | 
20 |  |  | < 100 | 100 to 1000 | Cc1ccnc(Nc2cccc(-c3cnc(N4CCC[C@@H](C(N)=O)C4)s3)n2)c1 [Compound A-533, (R)-1-{5-[6-(4-methylpyridin-2-ylamino)pyridin-2-yl]thiazol-2-yl}piperidine-3-carboxamide] | 

The next lines start with the molecule.

Row | SMILES | IC50 [1, 3] [nM] | IC50 [2, 4] [nM] | IC50 [1, 5] [nM] | IC50 [2, 6] [nM] | further results
21 | Cc1ccnc(Nc2cccc(-c3cnc(CCCCCO)s3)n2)c1 [Compound A-70, 5-{5-[6-(4-methylpyridin-2-ylamino)pyridin-2-yl]thiazol-2-yl}pentan-1-ol] | < 100 | 100 to 1000 |  |  | 
22 | CC(=O)O[C@@H](c1ccccc1)c1ncc(-c2cccc(Nc3cc(C)ccn3)n2)s1 [Compound A-318] | 100 to 1000 | > 1000 |  |  | 
23 | Cc1ccnc(Nc2cccc(-c3cnc(CN4CCNC(=O)C4)s3)n2)c1 [Compound A-351, potassium carbonate 4-{5-[6-(4-methylpyridin-2-ylamino)pyridin-2-yl]thiazol-2-ylmethyl}piperazin-2-one] | < 100 |  |  |  | IC50 [2]: 100 to 1000 nM
24 | CC(=O)c1ccc(-c2cccc(Nc3ccccn3)n2)s1 [Compound B-67] |  |  |  |  | IC50 [1, 7]: 100 to 1000 nM; IC50 [2, 8]: > 1000 nM
25 | CC(=O)N1CCC(N(C)c2ncc(-c3cccc(Nc4cc(Cl)ccn4)n3)s2)CC1 [Compound A-536, 1-[4-(N-{5-[6-(4-chloropyridin-2-ylamino)pyridin-2-yl]thiazol-2-yl}-N-methylamino)piperidin-1-yl]ethanone] |  |  | < 100 | 100 to 1000 | 
26 | COc1ccc(C[C@H](NC(C)=O)c2ncc(-c3cccc(Nc4cc(C)ccn4)n3)s2)cc1OC [Compound A-139] | 100 to 1000 | > 1000 |  |  | 
27 | CC(=O)N[C@@H](CCC(=O)OCc1ccccc1)c1ncc(-c2cccc(Nc3cc(C)ccn3)n2)s1 [Compound A-98] | 100 to 1000 | > 1000 |  |  | 
28 | Cc1ccnc(Nc2cccc(-c3ccc([N+](=O)[O-])s3)n2)c1 [Compound B-28] |  |  |  |  | IC50 [1, 7]: 100 to 1000 nM; IC50 [2, 8]: > 1000 nM
29 | CC(=O)c1ccc(-c2cccc(Nc3cc(CCO)ccn3)n2)s1 [Compound B-56] |  |  |  |  | IC50 [1, 7]: 100 to 1000 nM; IC50 [2, 8]: 100 to 1000 nM
30 | Cc1ccnc(Nc2cccc(-c3cnc(CCc4ccc(C(=O)N5C[C@@H](O)[C@@H](O)C5)cc4)s3)n2)c1 [Compound A-223, ((3R,4S)-3,4-dihydroxypyrrolidin-1-yl)-[4-(2-{5-[6-(4-methylpyridin-2-ylamino)pyridin-2-yl]thiazol-2-yl}ethyl)phenyl]methanone] | < 100 | 100 to 1000 |  |  | 
31 | Cc1ccnc(Nc2cccc(-c3cnc(CCC4CCN(S(C)(=O)=O)CC4)s3)n2)c1 [Compound A-260, N-(6-{2-[2-(1-methanesulfonylpiperidin-4-yl)ethyl]thiazol-5-yl}pyridin-2-yl)-N-(4-methylpyridin-2-yl)amine] | < 100 | 100 to 1000 |  |  | 
32 | O=C([C@H]1CC[C@H](c2ncc(-c3cccc(Nc4cc5ccccc5cn4)n3)s2)CC1)N1CCC(O)CC1 [Compound A-307] | 100 to 1000 | 100 to 1000 |  |  | 
33 | Cc1ccnc(Nc2cccc(-c3cnc([C@@H]4COC(=O)N4CC(=O)N4C[C@@H](O)[C@@H](O)C4)s3)n2)c1 [Compound A-404] |  |  | > 1000 | > 1000 | 
34 | CCOC(=O)Cc1ccnc(Nc2cccc(-c3ccc(C(C)=O)s3)n2)c1 [Compound B-52, {2-[6-(5-acetylthiophen-2-yl)pyridin-2-ylamino]pyridin-4-yl}acetic acid ethyl ester] |  |  |  |  | IC50 [1, 7]: < 100 nM; IC50 [2, 8]: > 1000 nM
35 | Cc1ccnc(Nc2cccc(-c3cnc([C@H]4CC[C@H](C(=O)N[C@H]5CC[C@H](O)CC5)CC4)s3)n2)c1 [Compound A-305] | 100 to 1000 | 100 to 1000 |  |  | 
36 | Cc1ccnc(Nc2cccc(-c3cnc(CCc4cccc(CO)c4)s3)n2)c1 [Compound A-277, [3-(2-{5-[6-(4-methylpyridin-2-ylamino)pyridin-2-yl]thiazol-2-yl}ethyl)phenyl]methanol] | < 100 | 100 to 1000 |  |  | 
37 | Cc1ccnc(Nc2cccc(-c3cnc([C@H]4CC[C@H](C(=O)N5C[C@H](O)C[C@H](O)C5)CC4)s3)n2)c1 [Compound A-227] | 100 to 1000 | 100 to 1000 |  |  | 
38 | Cc1ccnc(Nc2cccc(-c3sc([N+](=O)[O-])cc3C)n2)c1 [Compound B-21] |  |  |  |  | IC50 [1, 7]: > 1000 nM; IC50 [2, 8]: > 1000 nM
39 | CC(=NO)c1sc(-c2cccc(Nc3cc(C)ccn3)n2)cc1C [Compound B-42] |  |  |  |  | IC50 [1, 7]: 100 to 1000 nM; IC50 [2, 8]: > 1000 nM
40 | Cc1ccnc(Nc2cccc(-c3cnc(C4CCC(c5nnn[nH]5)CC4)s3)n2)c1 (stereo not shown) [Compound A-326, N-(4-methylpyridin-2-yl)-N-(6-{2-[4-(1H-tetrazol-5-yl)cyclohexyl]thiazol-5-yl}pyridin-2-yl)amine] | < 100 | 100 to 1000 |  |  | 
41 | Cc1ccnc(Nc2cccc(-c3cnc([C@H]4CC[C@H](C(=O)NCCN(C)C)CC4)s3)n2)c1 [Compound A-309, N-(2-dimethylaminoethyl)-trans-4-{5-[6-(4-methylpyridin-2-ylamino)pyridin-2-yl]thiazol-2-yl}cyclohexanecarboxamide] | < 100 | 100 to 1000 |  |  | 
